From publication PMC6269769, “Novel Conformationally Constrained Analogues of Agomelatine as New Melatoninergic Ligands” (Molecules, 2012) come the findings set out here.

Where a name gives a salt, the structure may show the parent alone.

Experiment [1] has as its target T1, human melatonin MT2 receptor (Homo sapiens, UniProt P49286).
T1 construct: gene MTNR1B; receptor stably expressed in transfected CHO cells, membrane preparation
T1 sequence (P49286 1-362): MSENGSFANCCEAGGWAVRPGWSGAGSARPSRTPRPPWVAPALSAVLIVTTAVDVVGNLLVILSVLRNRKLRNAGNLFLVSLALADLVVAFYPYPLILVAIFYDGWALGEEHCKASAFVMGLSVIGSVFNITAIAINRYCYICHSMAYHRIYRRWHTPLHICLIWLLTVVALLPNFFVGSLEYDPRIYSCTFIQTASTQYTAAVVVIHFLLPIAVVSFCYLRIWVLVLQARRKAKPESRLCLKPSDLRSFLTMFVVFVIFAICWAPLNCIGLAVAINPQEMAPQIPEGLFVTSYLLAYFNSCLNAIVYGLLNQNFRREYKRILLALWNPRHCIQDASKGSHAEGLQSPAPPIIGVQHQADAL
Briefly: […]-[…]iodomelatonin displacement, CHO membranes. In kind it is binding.

Experiment [2] concerns the target T2, human melatonin MT1 receptor (Homo sapiens, UniProt P48039).
T2 construct: gene MTNR1A; receptor stably expressed in transfected CHO cells, membrane preparation
Briefly: […]-[…]iodomelatonin displacement, CHO membranes. In kind it is binding.

T2 sequence (P48039 whole entry): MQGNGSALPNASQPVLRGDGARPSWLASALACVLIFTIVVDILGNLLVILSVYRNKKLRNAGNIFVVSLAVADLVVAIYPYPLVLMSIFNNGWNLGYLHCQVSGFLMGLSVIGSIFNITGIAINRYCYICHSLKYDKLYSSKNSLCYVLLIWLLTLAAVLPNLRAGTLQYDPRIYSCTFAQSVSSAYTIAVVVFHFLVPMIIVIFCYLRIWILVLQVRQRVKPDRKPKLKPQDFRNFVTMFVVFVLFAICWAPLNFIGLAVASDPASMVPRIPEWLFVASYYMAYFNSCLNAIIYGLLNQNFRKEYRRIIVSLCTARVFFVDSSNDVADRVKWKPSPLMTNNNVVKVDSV

What is called Ki is the equilibrium dissociation constant of an inhibitor or competing ligand from its target. On to `COc1ccc2cccc(CCN3CCOC3=O)c2c1` [7a], for which the inhibition constant Ki in experiment [1] amounted to 6 ± 0.2 nM; in experiment [2], 113 ± 18 nM.

Turning to `COc1ccc2cccc(CCN3CCCC3=O)c2c1` [7b], the inhibition constant Ki is 2.1 ± 0.01 nM in experiment [1] and 68.5 ± 18.2 nM in experiment [2].

For `COc1ccc2cccc3c2c1CN(C(C)=O)CC3` [9a, 1-(10-Methoxy-1,2,3,4-tetrahydro-naphto[1,8-cd]azepin-2-yl)ethanone], the inhibition constant (Ki) in experiment [1] amounted to 469 ± 44 nM; in experiment [2], 2500 ± 57 nM.

As for `COc1ccc2ccc3c(c2c1)CCN(C(C)=O)C3` [9b, 1-(9-Methoxy-1,2,3,4-tetrahydro-benzo[f]isoquinolein-3-yl)ethanone], the figures for the Ki in experiment [1] and in experiment [2] were 800 ± 59 nM and 3000 ± 27 nM, respectively.

Turning to `COc1ccc2cccc(CC3=NOS(=O)N3)c2c1` (stereo not shown) [compound 3, 4-[(7-Methoxynaphth-1-yl)methyl]-3H-1,2,3,5-oxathiadiazole 2-oxide], the inhibition constant (Ki) in experiment [1] is 1300 nM; in experiment [2], above 1000 nM.

On to `COc1ccc2cccc(Cc3noc(=O)[nH]3)c2c1` [compound 4, 3-[(7-Methoxynaphth-1-yl)methyl]-1,2,4-oxadiazole-5(4H)-one], for which the Ki in experiment [1] came out at 25.2 ± 10.7 nM; in experiment [2], 80 ± 16 nM.

In the case of `COc1ccc2cccc(Cc3nn[nH]n3)c2c1` [compound 5, 5-(7-Methoxynaphth-1-ylmethyl)-1H-tetrazole], the Ki in experiment [1] turned out to be 190 ± 84 nM; in experiment [2], 380 ± 114 nM.

Regarding `COc1ccc2cccc(CC3NC(=O)NC3=O)c2c1` (stereo not shown) [compound 12, 5-[(7-Methoxynaphth-1-yl)methyl]-imidazolidin-2,4-diones], the inhibitory constant (Ki) was found to be 141 ± 31 nM in experiment [1] and 2170 ± 63 nM in experiment [2].

With `COc1ccc2cccc(CCNc3nccs3)c2c1` [compound 13, 2-[2-(7-Methoxynaphth-1-yl)]-ethylamino]-1,3-thiazole hydrochloride], the inhibition constant Ki in experiment [1] worked out at 12.5 ± 0.4 nM; in experiment [2] it was 33.9 ± 8.1 nM.

Turning to `COc1ccc2cccc(CCNc3ncc(C)s3)c2c1` [compound 14, 2-[2-(7-Methoxynaphth-1-yl)ethylamino]-5-methyl-1,3-thiazole], the figures for the inhibitory constant (Ki) in experiment [1] and in experiment [2] were 354 ± 32 nM and 389 ± 121 nM, respectively.

Consider `COc1ccc2cccc(CCNc3cc(C)on3)c2c1` [compound 15, 3-[2-(7-Methoxynaphth-1-yl)ethylamino]-5-methyl-1,2-isoxazole hydrochloride], for which the results for the Ki in experiment [1] and in experiment [2] were 20.3 ± 3.9 nM and 48.4 ± 11.2 nM, respectively.
